Experimental data published in patent publication US20190328670A1, “Microparticles for Oral Delivery” (Intervet Inc., priority 2004, published 2019).

Experiment: Oral bioavailability in rats compared with conventional formulations
Type: in vivo
Procedure: Glyceryl tricaprylate and tricaprate mixture solutions containing these drugs are admixed in complex slurry according to Example 1 and recovered as free-flowing powders as in Example 2. […] Oral bioavailability is tested in rats and compared with those from other conventional formulations.
A soy oil solution containing 100 parts per million of triclosan is admixed in a complex slurry containing 100 parts per million of chlorhexidine according to Example 1. Microbeads are then produced and recovered as free-flowing powders as in Example 2. […] Oral bioavailability is tested in rats and compared with those from other conventional formulations.

[H]/N=C(\N/C(=N/[H])NCCCCCCNC(=N)NC(=N)Nc1ccc(Cl)cc1)Nc1ccc(Cl)cc1 [chlorhexidine]
Gastrointestinal absorption (rat, in vivo, po): more efficient

Oc1cc(Cl)ccc1Oc1ccc(Cl)cc1Cl [triclosan]
Gastrointestinal absorption (rats, oral, from the microbeads/microcapsules versus powders, granules, or oil solution): more efficient
